{"source": "patent US20240246937A1", "about": "(MERCK SHARP & DOHME LLC, priority 2021, published 2024)", "data": [{"target": "recombinant IL4I1 (Homo sapiens (Human), UniProt Q96RQ9)", "sequence (Q96RQ9 22-567)": "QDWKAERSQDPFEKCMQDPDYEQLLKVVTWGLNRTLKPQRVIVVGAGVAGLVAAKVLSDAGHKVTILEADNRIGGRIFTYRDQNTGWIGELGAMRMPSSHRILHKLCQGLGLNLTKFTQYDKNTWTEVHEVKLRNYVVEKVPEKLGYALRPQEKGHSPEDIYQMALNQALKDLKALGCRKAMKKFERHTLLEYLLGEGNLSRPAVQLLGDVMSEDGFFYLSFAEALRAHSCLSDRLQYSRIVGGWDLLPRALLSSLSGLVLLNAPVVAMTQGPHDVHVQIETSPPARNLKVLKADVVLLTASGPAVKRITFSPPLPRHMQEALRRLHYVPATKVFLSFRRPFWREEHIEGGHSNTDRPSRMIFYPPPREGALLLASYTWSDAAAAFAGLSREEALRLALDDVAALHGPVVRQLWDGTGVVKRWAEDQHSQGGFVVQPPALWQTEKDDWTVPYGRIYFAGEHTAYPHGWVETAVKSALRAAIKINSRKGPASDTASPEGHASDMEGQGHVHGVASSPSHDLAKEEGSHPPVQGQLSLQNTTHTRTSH", "experiment": "IL4I1 Enzymatic Assay (Amplex Red/HRP coupled fluorescence detection of H2O2)", "format": "biochemical", "conditions": "240 min; recombinant IL4I1, four-hour pre-incubation with compound", "procedure,_shortened": "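Recombinant human IL4I1 (1 nM final) pre-incubated 4 h with compound at ambient temperature in 50 mM Hepes pH 7.0, 0.005% Tween20. Started with 1 mM each Phe/Tyr/Trp plus Amplex Red/HRP; H2O2-derived resorufin fluorescence read after 120 min; EC50 from ten-point 1:3 titration, four-parameter fit.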", "units": {"EC50": "nM"}, "values": [{"smiles": "O=C1C(=O)N([C@H]2C[C@H]3C[C@H]3C2)CCN1Cc1ncc(-c2ccccc2)cn1", "note": "[Example 278, 1-((cis)-bicyclo[3.1.0]hexan-3-yl)-4-((5-phenylpyrimidin-2-yl)methyl)piperazine-2,3-dione]", "EC50": 16}, {"smiles": "O=C1C(=O)N(C2CCOC2)CCN1Cc1ncc(-c2ccccc2)cn1", "note": "(centres unmarked) [Example 279, 1-((5-phenylpyrimidin-2-yl)methyl)-4-(tetrahydrofuran-3-yl)piperazine-2,3-dione]", "EC50": 68}, {"smiles": "O=C1C(=O)N(CC2CC2)CCN1Cc1ncc(-c2ccccc2)cn1", "note": "[Example 280, 1-(cyclopropylmethyl)-4-((5-phenylpyrimidin-2-yl)methyl)piperazine-2,3-dione]", "EC50": 38}, {"smiles": "O=C1C(=O)N(CC2CCC2)CCN1Cc1ncc(-c2ccccc2)cn1", "note": "[Example 281, 1-(cyclobutylmethyl)-4-((5-phenylpyrimidin-2-yl)methyl)piperazine-2,3-dione]", "EC50": 35}, {"smiles": "CC1CCC1N1CCN(Cc2ncc(-c3ccccc3)cn2)C(=O)C1=O", "note": "(centres unmarked) [Example 282, 1-(2-methylcyclobutyl)-4-((5-phenylpyrimidin-2-yl)methyl)piperazine-2,3-dione]", "EC50": 30}, {"smiles": "O=C1C(=O)N([C@H]2C[C@H]3C[C@H]3C2)CCN1Cc1nnc(-c2ccccc2)s1", "note": "[Example 283, 1-((cis)-bicyclo[3.1.0]hexan-3-yl)-4-((5-phenyl-1,3,4-thiadiazol-2-yl)methyl)piperazine-2,3-dione]", "EC50": 7}, {"smiles": "O=C1C(=O)N(C2C[C@@H]3C[C@@H]3C2)CCN1Cc1ccc(-c2ccccc2)nn1", "note": "(stereo partly drawn) [Example 284, 1-((cis)-bicyclo[3.1.0]hexan-3-yl)-4-((6-phenylpyridazin-3-yl)methyl)piperazine-2,3-dione]", "EC50": 8}, {"smiles": "N#CC1CC(N2CCN(Cc3nnc(-c4ccccc4)s3)C(=O)C2=O)C1", "note": "(centres unmarked) [Example 285, 3-(2,3-dioxo-4-((5-phenyl-1,3,4-thiadiazol-2-yl)methyl)piperazin-1-yl)cyclobutane-1-carbonitrile]", "EC50": 28}, {"smiles": "CC(C)N1CCN(Cc2ncc(-c3ccccc3)cn2)C(=O)C1=O", "note": "[Example 286, 1-isopropyl-4-((5-phenylpyrimidin-2-yl)methyl)piperazine-2,3-dione]", "EC50": 34}, {"smiles": "CC(C)(C)CN1CCN(Cc2ncc(-c3ccccc3)cn2)C(=O)C1=O", "note": "[Example 287, 1-neopentyl-4-((5-phenylpyrimidin-2-yl)methyl)piperazine-2,3-dione]", "EC50": 34}, {"smiles": "CC(CF)N1CCN(Cc2ncc(-c3ccccc3)cn2)C(=O)C1=O", "note": "(centres unmarked) [Example 288, 1-(1-fluoropropan-2-yl)-4-((5-phenylpyrimidin-2-yl)methyl)piperazine-2,3-dione]", "EC50": 37}, {"smiles": "O=C1C(=O)N(C2CC(F)C2)CCN1Cc1nnc(-c2ccccc2)s1", "note": "(centres unmarked) [Example 290, 1-(3-fluorocyclobutyl)-4-((5-phenyl-1,3,4-thiadiazol-2-yl)methyl)piperazine-2,3-dione]", "EC50": 8}, {"smiles": "O=C1C(=O)N(C2CC(C3CC3)C2)CCN1Cc1nnc(-c2ccccc2)s1", "note": "(centres unmarked) [Example 291, 1-(3-cyclopropylcyclobutyl)-4-((5-phenyl-1,3,4-thiadiazol-2-yl)methyl)piperazine-2,3-dione]", "EC50": 4}, {"smiles": "O=C1C(=O)N(c2ccccc2)CCN1Cc1ncc(-c2ccccc2)cn1", "note": "[Example 292, 1-phenyl-4-((5-phenylpyrimidin-2-yl)methyl)piperazine-2,3-dione]", "EC50": 64}, {"smiles": "[2H]C1(n2ccn(Cc3nnc(-c4ccccc4)s3)c(=O)c2=O)CCCC1", "note": "[Example 293, 1-(cyclopentyl-1-d)-4-((5-phenyl-1,3,4-thiadiazol-2-yl)methyl)-1,4-dihydropyrazine-2,3-dione]", "EC50": 11}, {"smiles": "O=C1C(=O)N(C23CC(F)(C2)C3)CCN1Cc1nnc(-c2ccccc2)s1", "note": "[Example 294, 1-(3-fluorobicyclo[1.1.1]pentan-1-yl)-4-((5-phenyl-1,3,4-thiadiazol-2-yl)methyl)piperazine-2,3-dione]", "EC50": 16}, {"smiles": "N#CC12CC(N3CCN(Cc4nnc(-c5ccccc5)s4)C(=O)C3=O)(C1)C2", "note": "[Example 295, 3-(2,3-dioxo-4-((5-phenyl-1,3,4-thiadiazol-2-yl)methyl)piperazin-1-yl)bicyclo[1.1.1]pentane-1-carbonitrile]", "EC50": 53}, {"smiles": "CC12CC(N3CCN(Cc4nnc(-c5ccccc5)s4)C(=O)C3=O)(CO1)C2", "note": "[Example 296, 1-(1-methyl-2-oxabicyclo[2.1.1]hexan-4-yl)-4-((5-phenyl-1,3,4-thiadiazol-2-yl)methyl)piperazine-2,3-dione]", "EC50": 63}, {"smiles": "COc1ccc(C2(N3CCN(Cc4nnc(-c5ccccc5)s4)C(=O)C3=O)CC2)nc1", "note": "[Example 297, 1-(1-(5-methoxypyridin-2-yl)cyclopropyl)-4-((5-phenyl-1,3,4-thiadiazol-2-yl)methyl)piperazine-2,3-dione]", "EC50": 83}, {"smiles": "O=C1C(=O)N(C2(C(F)(F)F)CCC2)CCN1Cc1nnc(-c2ccccc2)s1", "note": "[Example 298, 1-((5-phenyl-1,3,4-thiadiazol-2-yl)methyl)-4-(1-(trifluoromethyl)cyclobutyl)piperazine-2,3-dione]", "EC50": 32}, {"smiles": "COCC(C)(C)N1CCN(Cc2nnc(-c3ccccc3)s2)C(=O)C1=O", "note": "[Example 299, 1-(1-methoxy-2-methylpropan-2-yl)-4-((5-phenyl-1,3,4-thiadiazol-2-yl)methyl)piperazine-2,3-dione]", "EC50": 56}, {"smiles": "CC(C)(c1cccnc1)N1CCN(Cc2nnc(-c3ccccc3)s2)C(=O)C1=O", "note": "[Example 300, 1-((5-phenyl-1,3,4-thiadiazol-2-yl)methyl)-4-(2-(pyridin-3-yl)propan-2-yl)piperazine-2,3-dione]", "EC50": 86}, {"smiles": "O=C1C(=O)N(C23CCC(CC2=O)C3)CCN1Cc1nnc(-c2ccccc2)s1", "note": "(centres unmarked) [Example 301, 1-(2-oxobicyclo[2.2.1]heptan-1-yl)-4-((5-phenyl-1,3,4-thiadiazol-2-yl)methyl)piperazine-2,3-dione]", "EC50": 67}, {"smiles": "CC1(N2CCN(Cc3nnc(-c4ccccc4)s3)C(=O)C2=O)COC1", "note": "[Example 302, 1-(3-methyloxetan-3-yl)-4-((5-phenyl-1,3,4-thiadiazol-2-yl)methyl)piperazine-2,3-dione]", "EC50": 69}, {"smiles": "CC1(N2CCN(Cc3nnc(-c4ccccc4)s3)C(=O)C2=O)CC1", "note": "[Example 303, 1-(1-methylcyclopropyl)-4-((5-phenyl-1,3,4-thiadiazol-2-yl)methyl)piperazine-2,3-dione]", "EC50": 28}, {"smiles": "O=C1C(=O)N(C2(c3ccncc3)CC2)CCN1Cc1nnc(-c2ccccc2)s1", "note": "[Example 304, 1-((5-phenyl-1,3,4-thiadiazol-2-yl)methyl)-4-(1-(pyridin-4-yl)cyclopropyl)piperazine-2,3-dione]", "EC50": 98}, {"smiles": "O=C1C(=O)N(C2(CF)CC2)CCN1Cc1nnc(-c2ccccc2)s1", "note": "[Example 305, 1-(1-(fluoromethyl)cyclopropyl)-4-((5-phenyl-1,3,4-thiadiazol-2-yl)methyl)piperazine-2,3-dione]", "EC50": 32}, {"smiles": "CC1(N2CCN(Cc3nnc(-c4ccccc4)s3)C(=O)C2=O)CCCCC1", "note": "[Example 306, 1-(1-methylcyclohexyl)-4-((5-phenyl-1,3,4-thiadiazol-2-yl)methyl)piperazine-2,3-dione]", "EC50": 27}, {"smiles": "CC(C)(C)N1CCN(Cc2nnc(-c3ccccc3)s2)C(=O)C1=O", "note": "[Example 307, 1-(tert-butyl)-4-((5-phenyl-1,3,4-thiadiazol-2-yl)methyl)piperazine-2,3-dione]", "EC50": 20}]}]}
